Test results reported in PMC11843613, “Further Optimization of the mGlu1 PAM VU6024578/BI02982816: Discovery and Characterization of VU6033685” (ACS Chemical Neuroscience, 2025).
“And” between values parts separate entries of the source, which are not always exact repeats. Equal values may be shown once. One block for each compound: values may come before it.

Experiments:
human mGlu1 = biological target: T1, human mGlu1 (Homo sapiens, UniProt Q13255); test: mGlu1 PAM calcium mobilization assay (human); format: cell-based; settings: for fold increase in mGlu1 PAM potency over 5: human mGlu1 EC50 ratio versus 5
T1 construct: expressed in transfected cells; pcDNA5/TO)
From the text: Molecular Pharmacology. Tetracycline-tested fetal bovine serum (FBS) was purchased from Atlanta Biologicals (Lawrenceville, GA), and all other tissue culture reagents and Fluo-4-acetoxymethylester (Fluo-4-AM) were purchased from Life Technologies (Carlsbad, CA).
Tetracycline hydrochloride (Sigma), L-glutamic acid (Tocris, Minneapolis, MN), and (S)-3,5-dihydroxyphenylglycine (DHPG) (Abcam, Cambridge, MA). EZ-Link Sulfo-NHS-SS-Biotin and NeutrAvidin agarose beads (Pierce Biotechnology, Rockford, IL).
Cell Culture and Mutagenesis. Tetracycline-inducible human mGlu 1 WT-T-RExTM-293 cells (Wu et al, Science 2014) were cultured at 37 °C in Dulbecco’s Modified Eagle Medium (DMEM) growth medium containing 10% Tet-tested FBS, 2 mM L-glutamine, 20 mM HEPES, 0.1 mM non-essential amino acids, 1 mM sodium pyruvate, antibiotic/antimycotic, 100 µg/mL hygromycin and 5 µg/mL blasticidin in the presence of 5% CO 2. […]
Calcium Mobilization Assay. To determine the potency of mGlu 1 PAMs in calcium assays, Ca flux was measured as previously described in ACS Chem. Bio. 2014, 9, 2334-2346. Briefly, the day before the assay, human mGlu1 WT-T-RExTM-293 cells were plated in black-walled, clear-bottomed, poly-D-lysine coated 96-well plates at 80,000 cells/100 µL assay medium (DMEM supplemented with 10% dialyzed FBS, 20 mM HEPES, and 1 mM sodium pyruvate) containing 50 ng/mL of tetracycline to induce mGlu1 expression. The next day, media was removed and the cells were incubated with 50 µL of 1.15 µM Fluo-4 AM dye solution prepared in assay buffer (buffer (Hank’s balanced salt solution, 20 mM HEPES, and 2.5 mM probenecid) for 45 min at 37 °C, the dye was removed and replaced with 45 µL of assay buffer. Then, calcium flux was measured using Flexstation II (Molecular Devices, Sunnyvale, CA). Compounds serially diluted […]
at half log concentrations in DMSO were further diluted in assay buffer. The compounds or DMSO vehicle were added to cells and incubated for 2.5 min and an EC20 concentration of glutamate was added and incubated for 1 min. An ECmax concentration of glutamate was also added to cells that were incubated with DMSO vehicle to accurately calculate the EC20 calcium response. Data were normalized by subtracting the basal florescent peak before EC20 agonist addition from the maximal peak elicited by EC20 agonist and PAMs. Using GraphPad Prism 5.0, the concentration response curves were generated and the potencies of the mGlu1 PAMs were determined. […]

CYP450 1A2 = biological target: T2, CYP450 1A2 (Homo sapiens, UniProt P05177); test: Inhibition of cytochrome P450 enzymes in human liver microsomes, 1A2; format: in vitro ADME
T2 construct: 0.1 mg/mL human liver microsomes (HLM); from tissue; host or cells: human liver microsomes
T2 sequence (P05177 1-516): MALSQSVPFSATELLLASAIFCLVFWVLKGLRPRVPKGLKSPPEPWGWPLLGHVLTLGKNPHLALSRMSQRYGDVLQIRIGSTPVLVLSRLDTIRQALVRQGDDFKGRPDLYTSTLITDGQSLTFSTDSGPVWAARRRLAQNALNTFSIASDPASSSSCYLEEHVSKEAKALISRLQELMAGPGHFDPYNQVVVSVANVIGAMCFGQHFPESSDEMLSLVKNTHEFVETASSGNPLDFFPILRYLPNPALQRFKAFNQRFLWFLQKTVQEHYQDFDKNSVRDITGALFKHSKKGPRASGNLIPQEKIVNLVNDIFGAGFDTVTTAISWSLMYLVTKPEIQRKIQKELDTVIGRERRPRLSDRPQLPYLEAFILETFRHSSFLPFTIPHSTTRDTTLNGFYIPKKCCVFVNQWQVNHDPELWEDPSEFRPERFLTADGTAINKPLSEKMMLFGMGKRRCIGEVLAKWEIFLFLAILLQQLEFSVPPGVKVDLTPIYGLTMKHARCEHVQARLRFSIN
Method: Inhibition of Cytochrome P450 Enzymes: A cocktail of substrates for cytochrome P450 enzymes (1A2: Phenacetin, 10 µM; 2C9: Diclofenac, 5 µM; 2D6: Dextromethorphan, 5 µM; 3A4:
Midazolam, 2 µM) were mixed for cocktail analysis. For P450 2C19, the substrate stock (Mephenytoin, 40 µM )and substrate mix were prepared separately for discrete analysis. The […]
positive control for pan-P450 inhibition (miconazole) was included alongside each test compound […]
A reaction mixture of 100 mM Kpi, pH 7.4, 0.1 mg/mL human liver microsomes (HLM) and Substrate Mix is prepared and aliquoted into a 96-deepwell block. Test compound and positive control (in duplicate) were then added such that the final concentration of test compound ranged from 0.1 – 30 µM. The plate was vortexed briefly and then pre-incubated at 37 °C while shaking for 15 minutes. The reaction was initiated with the addition of NADPH (1 mM final concentration). The incubation continued for 8 min and the reaction quenched by 2x volume of cold acetonitrile containing internal standard (50 nM carbamazepine). The plate was centrifuged for 10 minutes (4000 rcf, 4°C) and the resulting supernatant diluted 1:1 with water for LC/MS/MS analysis. A 12 point standard curve of substrate metabolites over the range of 0.98 nM to 2000 […]
Samples were analyzed via electrospray ionization (ESI) on an AB Sciex API-4000 (Foster City, CA) triple-quadrupole instrument that was coupled with Shimadzu LC-10AD pumps (Columbia, MD) and a Leap Technologies CTC PAL auto-sampler (Carrboro, NC). Analytes were separated by gradient elution using a Fortis C18 3.0 x 50 mm, 3 µm column (Fortis Technologies Ltd, Cheshire, UK) thermostated at 40°C. HPLC mobile phase A was 0.1% formic acid in water (pH unadjusted), mobile phase B was 0.1% formic acid in acetonitrile (pH unadjusted). The gradient […]
90% B for 0.1 min and returned to 10% B in 0.1 min followed by a re-equilibration (0.9 min). The total run time was 2.5 min and the HPLC flow rate was 0.5 mL/min. The source temperature was set at 500°C and mass spectral analyses were performed using multiple reaction monitoring (MRM), with transitions specific for each compound utilizing a Turbo-Ionspray® source in positive ionization mode (5.0 kV spray voltage).
The IC50 values for each compound were obtained for the individual CYP enzymes by quantitating the inhibition of metabolite formation for each probe substrate. A 0 µM compound condition (or control) was set to 100% enzymatic activity and the effect of increasing test compound concentrations on enzymatic activity could then be calculated from the % of control activity.
Curves were fitted using XLfit 5.2.2 (four-parameter logistic model, equation 201) to determine the concentration that produces half-maximal inhibition (IC50).

T1 sequence (Q13255 19-1194): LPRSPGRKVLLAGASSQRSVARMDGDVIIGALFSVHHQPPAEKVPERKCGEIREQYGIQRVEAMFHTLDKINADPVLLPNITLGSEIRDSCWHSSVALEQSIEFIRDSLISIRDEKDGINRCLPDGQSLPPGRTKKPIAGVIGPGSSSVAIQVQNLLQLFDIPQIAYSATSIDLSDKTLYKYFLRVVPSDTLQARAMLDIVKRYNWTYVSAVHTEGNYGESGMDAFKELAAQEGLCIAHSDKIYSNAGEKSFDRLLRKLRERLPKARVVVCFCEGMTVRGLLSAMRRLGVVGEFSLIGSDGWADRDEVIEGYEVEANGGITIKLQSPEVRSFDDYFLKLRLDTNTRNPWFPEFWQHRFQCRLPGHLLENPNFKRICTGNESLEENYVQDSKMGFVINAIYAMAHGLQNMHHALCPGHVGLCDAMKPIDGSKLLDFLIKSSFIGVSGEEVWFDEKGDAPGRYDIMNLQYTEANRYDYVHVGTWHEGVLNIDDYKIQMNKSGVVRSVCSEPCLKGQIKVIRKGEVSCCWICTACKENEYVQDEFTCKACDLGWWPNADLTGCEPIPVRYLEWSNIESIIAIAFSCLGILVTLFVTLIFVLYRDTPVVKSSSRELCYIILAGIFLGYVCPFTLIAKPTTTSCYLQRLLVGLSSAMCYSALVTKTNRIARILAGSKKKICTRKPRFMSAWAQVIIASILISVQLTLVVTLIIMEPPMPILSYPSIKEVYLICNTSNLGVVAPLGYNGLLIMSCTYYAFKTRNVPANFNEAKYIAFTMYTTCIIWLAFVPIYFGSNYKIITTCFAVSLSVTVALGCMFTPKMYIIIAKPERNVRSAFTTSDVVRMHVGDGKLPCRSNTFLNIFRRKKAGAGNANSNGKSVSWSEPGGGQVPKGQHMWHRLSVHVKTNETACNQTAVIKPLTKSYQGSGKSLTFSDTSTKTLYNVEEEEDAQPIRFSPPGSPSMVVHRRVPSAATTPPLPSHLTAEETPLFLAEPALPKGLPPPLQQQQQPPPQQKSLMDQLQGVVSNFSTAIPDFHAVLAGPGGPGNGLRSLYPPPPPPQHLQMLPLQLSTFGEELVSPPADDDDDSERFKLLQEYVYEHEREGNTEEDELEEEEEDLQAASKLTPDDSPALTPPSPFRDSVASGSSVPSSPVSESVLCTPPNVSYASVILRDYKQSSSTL

Structure (SMILES): Cc1nc2ccccc2cc1CNC(=O)c1cc(-n2cccn2)ccc1Cl [compound 6]
EC50 (human mGlu1): 32 nM
human mGlu1 Glu Max (human mGlu1): 56%
IC50 (CYP450 1A2): 15.9 µM

Structure (SMILES): Cc1nc2c(F)cccc2cc1CNC(=O)c1cc(-n2cccn2)ccc1Cl [compound 7]
EC50 (human mGlu1): 17 nM
human mGlu1 Glu Max (human mGlu1): 56%
fold increase in mGlu1 PAM potency over 5 (human mGlu1): ~31 fold
IC50 (CYP450 1A2): 11.2 µM

Structure (SMILES): Cc1nc(C2CC2)ccc1CNC(=O)c1cc(-n2cccn2)ccc1Cl [compound 8]
EC50 (human mGlu1): 39 nM
human mGlu1 Glu Max (human mGlu1): 65%
fold increase in mGlu1 PAM potency over 5 (human mGlu1): ~14 fold
IC50 (CYP450 1A2): 26 µM

The next lines start with the values.

EC50 (human mGlu1): 28 nM
human mGlu1 Glu Max (human mGlu1): 72%
IC50 (CYP450 1A2): 14.7 µM
Structure (SMILES): Cn1cc(-c2cc(CNC(=O)c3cc(-c4ccco4)ccc3Cl)n(C)n2)cn1 [compound 4]

EC50 (human mGlu1): 527 nM and 551 nM
human mGlu1 Glu Max (human mGlu1): 76%
IC50 (CYP450 1A2): > 30 µM
Structure (SMILES): Cn1nc(-c2ccnn2C)cc1CNC(=O)c1cc(-n2cccn2)ccc1Cl [compound 5]
